Measured values from PMC5537347, “A short D-enantiomeric antimicrobial peptide with potent immunomodulatory and antibiofilm activity against multidrug-resistant Pseudomonas aeruginosa and Acinetobacter baumannii” (Scientific Reports, 2017).
Read-outs that look alike come from different tables or passages of the source.

Assays:
[1] = test system: C. elegans strain glp-4;sek 1; assay: Toxicity of peptides in uninfected C. elegans; assay type: in vivo, Caenorhabditis elegans; conditions: worms grown four days with peptide; D-RR4 and colistin at 8 × MIC
Experimental: To test the efficacy of the synthetic peptides to protect against infections in vivo, we utilized a C. elegans model of bacterial infection. This model has been used extensively for early-stage evaluation of promising antimicrobials, [35], [36]. Initially, the lethal dose of D-RR4 against uninfected nematodes was determined.
(A) Evaluation of toxicity of peptides in Caenorhabditis elegans. C. elegans strain glp-4;sek 1 was grown for four days in the presence of peptides at different concentrations. Worms were monitored daily and the live worms were counted. Results are expressed as a Kaplan-Meier survival curve. (B) Evaluation of antimicrobial activity of peptides to reduce the bacterial CFU inside infected Caenorhabditis elegans. C. elegans strain glp-4; sek 1 were infected with P. aeruginosa PAO1, colistin-resistant P. aeruginosa 1109, or A. baumannii ATCC BAA-1605. […] After treatment, worms were lysed and bacteria were counted. One asterisk (*) indicates significant difference with the negative control. Two asterisks (**) indicates significant difference with the monotherapy treatment (P < 0.05). Results are expressed as means from three biological replicates ± standard deviation. (C) Efficacy of peptides in a Caenorhabditis elegans model of bacterial infection. […] Worms were monitored daily and the live worms were counted. Results are expressed as a Kaplan-Meier survival curve. C. elegans receiving no treatment served as a negative control.

[2] = test system: A. baumannii; assay type: cell-based
Excerpt: (§1) The broth microdilution technique was utilized to assess the MIC of designed peptides according to the guidelines of the Clinical and Laboratory Standards Institute (CLSI)[37].

[3] = test system: P. aeruginosa; assay type: cell-based
Excerpt: as §1

Colistin [reference compound]
toxicity to uninfected worms [1]: not toxic
MIC ([2]; strain ATCC 19606): 0.125 µM
MIC ([2]; strain ATCC BAA-747): 0.25 µM
MIC ([2]; strain ATCC BAA-1605): 0.25 µM
MIC ([2]; strain NR-9667): 0.0625 µM
MIC ([2]; strain NR-13374): 0.125 µM
MIC ([2]; strain NR-13375): 0.125 µM
MIC ([2]; strain NR-13382): 0.5 µM
MIC ([2]; strain NR-17777): 0.5 µM
MIC ([2]; strain NR-17778): 0.0625 µM
MIC ([2]; strain NR-17780): 0.25 µM
MIC ([2]; strain NR-17783): 0.0625 µM
MIC ([2]; strain NR-17784): 0.0625 µM
MIC ([2]; strain NR-17785): 0.25 µM
MIC ([2]; strain NR-17786): 0.0625 µM
MIC ([2]; strain NR-19298): 0.25 µM
MIC ([2]; strain NR-19299): 0.25 µM
MIC ([3]; strain ATCC 9027): 0.25 µM
MIC ([3]; strain ATCC 9721): 0.5 µM
MIC ([3]; strain ATCC 10145): 0.5 µM
MIC ([3]; strain ATCC 15442): 0.25 µM
MIC ([3]; strain ATCC 25619): 0.25 µM
MIC ([3]; strain ATCC 27853): 0.25 µM
MIC ([3]; strain ATCC 35032): 0.5 µM
MIC ([3]; strain ATCC BAA-1744): 0.5 µM
MIC ([3]; strain PAO1): 0.5 µM
